Experimental data: ChEMBL document CHEMBL1149005, “Studies on zoapatle, II. Leucanthanolide, a novel sesquiterpene lactone from Montanoa leucantha ssp. leucantha” (1986)
Converted amounts (≈) assume the structure as drawn. The source made the active and inactive calls. The calls are words filed in the database; no cut-off is given here.

Assays:
[1] = tested on: Cavia porcellus; experiment: Uteroevacuant activity in pregnant guinea pig at 20 mg/kg, ip administered on day 22 of gestation measured daily for 7 days; assay type: functional, organism-based; parameters: dose 20 mg/kg
[2] = tested on: KB; experiment: Cytotoxicity against human KB cells; assay type: functional; settings: read-out: ED50 (the source's name)
[3] = tested on: P388; experiment: Cytotoxicity against mouse P388 cells; assay type: functional; settings: read-out: ED50 (the source's name)

C=C1C(=O)O[C@@H]2/C=C(\C)CC/C=C(\C)[C@@H](OC(=O)C(C)C)[C@H](O)[C@@]12O [LEUCANTHANOLIDE] was tested, and the Activity [1] was “inactive”, the EC50 [2] was 0.57 µg/mL (≈ 1.63 µM) and the EC50 [3] was 0.93 µg/mL (≈ 2.65 µM).
